The record followed here is ChEMBL document CHEMBL2151039, “Discovery and development of α7 nicotinic acetylcholine receptor modulators” (J Med Chem, 2011).

Series [1] addresses Neuronal acetylcholine receptor subunit alpha-7 (Rattus norvegicus) (UniProt Q05941). Description: Agonist activity at rat alpha7 nAchR expressed in Xenopus oocyte relative to acetylcholine. The class given is functional.
Series [2] concerns the target T1, Neuronal acetylcholine receptor subunit alpha-7 (Homo sapiens, UniProt P36544). Nature of the series: Agonist activity at human alpha7 nAChR expressed in Xenopus oocytes relative to acetylcholine. It counts as functional, cell-based. The conditions noted are these: Oocyte.
Series [3] deals with T2, 5-hydroxytryptamine receptor 3A (Homo sapiens) (UniProt P46098).
T2 sequence (whole entry): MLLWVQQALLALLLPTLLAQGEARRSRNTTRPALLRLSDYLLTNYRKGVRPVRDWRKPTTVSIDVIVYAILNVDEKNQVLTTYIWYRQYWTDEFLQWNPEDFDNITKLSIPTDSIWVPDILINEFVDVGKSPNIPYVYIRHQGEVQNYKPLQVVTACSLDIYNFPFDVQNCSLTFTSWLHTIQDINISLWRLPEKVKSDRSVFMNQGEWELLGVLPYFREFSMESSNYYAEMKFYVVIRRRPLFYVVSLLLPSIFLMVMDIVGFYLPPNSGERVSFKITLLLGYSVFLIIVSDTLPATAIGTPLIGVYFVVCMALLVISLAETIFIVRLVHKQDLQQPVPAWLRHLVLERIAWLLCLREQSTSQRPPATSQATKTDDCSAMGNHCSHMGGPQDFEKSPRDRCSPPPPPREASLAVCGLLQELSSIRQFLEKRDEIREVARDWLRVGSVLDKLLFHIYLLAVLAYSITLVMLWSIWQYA
Nature of the series: Binding affinity to human 5HT3 receptor at 10 uM by radioligand binding assay.

Series [4] addresses T1, Neuronal acetylcholine receptor subunit alpha-7. Description: Agonist activity at human alpha7 nAChR expressed in Xenopus oocyte. The class given is functional.
The target is the same in series [5]. Nature of the series: Displacement of [3H]-MLA from alpha7 nAChR.
Series [6] addresses T3, Neuronal acetylcholine receptor subunit alpha-7 (Rattus norvegicus, UniProt Q05941). Description: Agonist activity at rat alpha7 nAchR expressed in Xenopus oocyte. The class given is functional.
Series [7] deals with T3, Neuronal acetylcholine receptor subunit alpha-7. Nature of the series: Displacement of [3H]A-585539 from alpha7 nAChR rat cortex. (Loss of bound radioactivity is the signal in a displacement assay; it reports binding, not function.)
In series [8] the target is T1, Neuronal acetylcholine receptor subunit alpha-7. Description: Displacement of [3H]A-585539 from alpha7 nAChR human cortex.
Series [9] in a line: Oral bioavailability in mouse. The class given is ADME, organism-based. The conditions noted are these: in vivo.
A short description of series [10]: Oral bioavailability in rat. Conditions: in vivo. It counts as ADME, organism-based.
Series [11] is described as follows: Oral bioavailability in dog. The class given is ADME, organism-based, Canis lupus familiaris. Conditions: in vivo.
Series [12] can be described thus: Volume of distribution in mouse. It counts as ADME, organism-based. The conditions noted are these: in vivo.
The nature of series [13]: Volume of distribution in rat. It counts as ADME, organism-based. The conditions noted are these: in vivo.
The nature of series [14]: Volume of distribution in dog. The class given is ADME, organism-based, Canis lupus familiaris. The conditions noted are these: in vivo.
Series [15] concerns the target T3, Neuronal acetylcholine receptor subunit alpha-7. Description: Displacement of [3H]-MLA from alpha7 nAChR in rat brain membranes. The class given is cell membranes.
Series [16] addresses T1, Neuronal acetylcholine receptor subunit alpha-7. Description: Agonist activity at alpha7 nAChR. The class given is functional.
Series [17] addresses T4, Neuronal acetylcholine receptor; alpha4/beta2 (Homo sapiens, UniProt P17787+P43681). Nature of the series: Binding affinity to alpha4beta2 nAChR. The class given is protein-complex assay.
The target of series [18] is T3, Neuronal acetylcholine receptor subunit alpha-7. Description: Binding affinity to alpha7 nAChR in rat brain membranes. The class given is cell membranes.
Series [19] deals with T1, Neuronal acetylcholine receptor subunit alpha-7. Description: Binding affinity to alpha7 nAchR in human frontal cortex membranes. It counts as cell membranes, Membrane.
The target in series [20] is T5, 5-hydroxytryptamine receptor 3A (Homo sapiens, UniProt P46098).
T5 sequence (P46098 whole entry): T2 sequence (whole entry)
Description: Displacement of [3H]-BRL-43694 from human 5HT3 receptor.

The target in series [21] is Cytochrome P450 2D6 (Homo sapiens, UniProt P10635). Description: Inhibition of CYP2D6. It counts as ADME.
In series [22] the target is T1, Neuronal acetylcholine receptor subunit alpha-7. Nature of the series: Binding affinity to alpha7 nAChR.
The target is the same in series [23]. Description: Agonist activity at human alpha7 nAChR expressed in GH4C1 cells assessed as potentiation of nicotine-induced calcium signal relative to control. It counts as functional, cell-based. The conditions noted are these: GH4-C1.
Series [24] has the same target. Description: Agonist activity at human alpha7 nAChR expressed in GH4C1 cells assessed as potentiation of nicotine-induced calcium signal. It counts as functional, cell-based, GH4-C1.
Series [25] has the same target. Nature of the series: Antagonist activity at alpha7 nAChR assessed as amplitude of acetylcholine evoked currents. It counts as functional.
Series [26] concerns the target T4, Neuronal acetylcholine receptor; alpha4/beta2. Nature of the series: Antagonist activity at alpha4beta2 nAChR assessed as amplitude of acetylcholine evoked currents. It counts as functional.
Series [27] addresses Neuronal acetylcholine receptor; alpha3/beta4 (Homo sapiens, UniProt P30926+P32297). Description: Antagonist activity at alpha3beta4 nAChR assessed as amplitude of acetylcholine evoked currents. The class given is functional.

The structures appear in SMILES notation.

T1 sequence (P36544 whole entry): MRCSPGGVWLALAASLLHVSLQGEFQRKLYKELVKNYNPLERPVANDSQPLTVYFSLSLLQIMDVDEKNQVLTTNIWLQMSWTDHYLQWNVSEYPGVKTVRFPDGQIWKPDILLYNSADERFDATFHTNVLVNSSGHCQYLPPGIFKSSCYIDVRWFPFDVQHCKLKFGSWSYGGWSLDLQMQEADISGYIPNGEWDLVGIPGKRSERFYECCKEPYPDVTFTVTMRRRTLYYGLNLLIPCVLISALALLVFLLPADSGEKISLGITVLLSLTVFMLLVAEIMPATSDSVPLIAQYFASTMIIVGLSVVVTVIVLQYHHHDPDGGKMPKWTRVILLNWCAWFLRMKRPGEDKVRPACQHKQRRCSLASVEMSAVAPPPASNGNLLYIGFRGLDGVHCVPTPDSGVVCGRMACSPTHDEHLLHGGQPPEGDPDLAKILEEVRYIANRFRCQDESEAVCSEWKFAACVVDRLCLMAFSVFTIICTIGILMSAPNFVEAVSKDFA
T3 sequence (Q05941 whole entry): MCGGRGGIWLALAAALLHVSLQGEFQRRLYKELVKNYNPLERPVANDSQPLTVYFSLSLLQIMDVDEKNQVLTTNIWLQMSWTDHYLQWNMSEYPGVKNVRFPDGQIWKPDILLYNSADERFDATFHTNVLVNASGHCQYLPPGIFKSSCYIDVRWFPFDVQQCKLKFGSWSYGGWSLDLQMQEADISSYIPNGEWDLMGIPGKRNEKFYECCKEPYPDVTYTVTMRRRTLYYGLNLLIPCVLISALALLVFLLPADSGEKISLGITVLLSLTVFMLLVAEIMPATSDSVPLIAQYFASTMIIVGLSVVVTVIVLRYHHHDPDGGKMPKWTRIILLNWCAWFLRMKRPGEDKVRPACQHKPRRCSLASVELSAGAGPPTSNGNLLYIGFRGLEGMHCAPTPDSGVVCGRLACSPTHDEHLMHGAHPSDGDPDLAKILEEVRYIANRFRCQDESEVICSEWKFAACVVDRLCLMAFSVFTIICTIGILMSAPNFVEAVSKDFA
T4 sequence (P17787 whole entry): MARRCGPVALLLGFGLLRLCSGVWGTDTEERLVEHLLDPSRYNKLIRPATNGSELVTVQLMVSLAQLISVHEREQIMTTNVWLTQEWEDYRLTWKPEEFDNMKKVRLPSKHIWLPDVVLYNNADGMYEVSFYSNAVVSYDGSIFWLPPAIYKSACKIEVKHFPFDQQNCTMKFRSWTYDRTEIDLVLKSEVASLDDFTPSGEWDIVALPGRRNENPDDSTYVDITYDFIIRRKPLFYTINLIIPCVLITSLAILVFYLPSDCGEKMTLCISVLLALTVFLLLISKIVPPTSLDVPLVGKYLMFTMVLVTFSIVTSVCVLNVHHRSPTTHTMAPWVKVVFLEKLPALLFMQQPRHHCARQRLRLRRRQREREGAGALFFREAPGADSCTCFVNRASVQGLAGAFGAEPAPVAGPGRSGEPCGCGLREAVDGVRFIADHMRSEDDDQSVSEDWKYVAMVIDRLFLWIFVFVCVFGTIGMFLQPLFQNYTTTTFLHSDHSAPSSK
T4 sequence (P43681 whole entry): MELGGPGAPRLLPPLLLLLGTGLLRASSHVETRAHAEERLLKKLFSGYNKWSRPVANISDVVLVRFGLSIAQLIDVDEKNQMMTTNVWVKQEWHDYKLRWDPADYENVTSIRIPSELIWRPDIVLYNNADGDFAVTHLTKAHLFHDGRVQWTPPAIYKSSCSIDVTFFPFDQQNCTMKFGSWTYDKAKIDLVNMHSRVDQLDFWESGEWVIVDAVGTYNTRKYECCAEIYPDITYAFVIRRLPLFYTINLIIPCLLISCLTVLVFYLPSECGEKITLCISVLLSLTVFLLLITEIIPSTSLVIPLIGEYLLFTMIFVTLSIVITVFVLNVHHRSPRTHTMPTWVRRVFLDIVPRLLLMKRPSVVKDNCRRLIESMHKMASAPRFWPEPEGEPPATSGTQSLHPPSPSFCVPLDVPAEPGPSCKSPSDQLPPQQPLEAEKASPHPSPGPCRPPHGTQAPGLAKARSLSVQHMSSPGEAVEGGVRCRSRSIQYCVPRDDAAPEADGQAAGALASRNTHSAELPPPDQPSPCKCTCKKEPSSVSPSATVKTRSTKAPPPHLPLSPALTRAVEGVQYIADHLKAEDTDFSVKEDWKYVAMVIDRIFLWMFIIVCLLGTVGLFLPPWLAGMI
Chain of Cytochrome P450 2D6 (P10635 whole entry): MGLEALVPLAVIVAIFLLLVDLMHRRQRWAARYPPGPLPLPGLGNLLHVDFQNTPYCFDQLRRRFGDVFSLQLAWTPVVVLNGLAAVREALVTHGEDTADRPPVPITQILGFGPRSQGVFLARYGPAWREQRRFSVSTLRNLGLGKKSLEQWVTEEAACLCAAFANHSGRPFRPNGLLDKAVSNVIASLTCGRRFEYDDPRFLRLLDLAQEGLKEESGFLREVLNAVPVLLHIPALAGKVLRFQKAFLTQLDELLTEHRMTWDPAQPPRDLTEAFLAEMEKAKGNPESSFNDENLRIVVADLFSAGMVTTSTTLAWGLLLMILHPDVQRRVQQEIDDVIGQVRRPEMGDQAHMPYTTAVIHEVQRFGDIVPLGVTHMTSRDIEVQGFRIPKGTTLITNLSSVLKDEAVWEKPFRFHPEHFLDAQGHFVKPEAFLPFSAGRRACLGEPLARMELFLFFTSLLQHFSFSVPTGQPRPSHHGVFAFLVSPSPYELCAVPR
Chain of Neuronal acetylcholine receptor subunit alpha-7 (Rattus norvegicus) (Q05941 whole entry): as the sequence (Q05941 whole entry) above
Chain of Neuronal acetylcholine receptor; alpha3/beta4 (P30926 whole entry): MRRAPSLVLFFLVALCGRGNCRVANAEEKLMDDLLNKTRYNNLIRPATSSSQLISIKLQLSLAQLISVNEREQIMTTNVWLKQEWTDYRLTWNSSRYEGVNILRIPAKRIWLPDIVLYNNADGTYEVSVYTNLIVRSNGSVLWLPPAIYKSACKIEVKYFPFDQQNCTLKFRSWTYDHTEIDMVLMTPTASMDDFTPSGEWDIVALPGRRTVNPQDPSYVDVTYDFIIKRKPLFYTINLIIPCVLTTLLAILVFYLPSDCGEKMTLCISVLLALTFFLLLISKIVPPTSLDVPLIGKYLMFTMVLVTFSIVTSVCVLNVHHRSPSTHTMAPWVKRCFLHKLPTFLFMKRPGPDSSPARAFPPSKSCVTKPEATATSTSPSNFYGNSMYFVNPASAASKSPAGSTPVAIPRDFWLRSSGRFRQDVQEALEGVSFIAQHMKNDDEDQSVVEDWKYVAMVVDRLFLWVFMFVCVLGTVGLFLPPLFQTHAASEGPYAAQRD
Chain of Neuronal acetylcholine receptor; alpha3/beta4 (P32297 whole entry): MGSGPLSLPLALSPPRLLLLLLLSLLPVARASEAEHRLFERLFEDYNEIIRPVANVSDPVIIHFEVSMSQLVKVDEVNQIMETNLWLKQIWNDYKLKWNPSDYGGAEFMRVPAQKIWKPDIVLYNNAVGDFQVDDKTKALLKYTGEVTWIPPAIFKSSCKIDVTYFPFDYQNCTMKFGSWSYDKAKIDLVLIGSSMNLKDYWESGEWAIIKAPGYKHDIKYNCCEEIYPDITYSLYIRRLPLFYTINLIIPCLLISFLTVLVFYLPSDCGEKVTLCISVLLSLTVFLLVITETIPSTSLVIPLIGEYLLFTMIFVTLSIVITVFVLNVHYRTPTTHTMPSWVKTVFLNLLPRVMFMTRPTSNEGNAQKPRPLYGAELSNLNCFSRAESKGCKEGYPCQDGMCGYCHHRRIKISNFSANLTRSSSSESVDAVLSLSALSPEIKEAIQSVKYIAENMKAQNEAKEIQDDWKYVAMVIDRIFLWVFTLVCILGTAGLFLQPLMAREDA

Regarding `c1cc2cc(-c3ccc(O[C@H]4CN5CCC4CC5)nn3)ccc2[nH]1` [ABT-107], the maximal response (Emax) in series [1] and in series [2] was 80% each time. Also, the inhibition in [3] is 4%. Besides, the EC50 in series [4] and in [6] was 50 nM each time. Further, the inhibition constant (Ki) in [5] was found to be 7 nM; in series [7] it was 0.2 nM; in series [8] it was 0.2 nM.

Take `CN1CC2CN(c3ccc(-c4ccccc4)nn3)CC2C1` (configuration not stated): the bioavailability in series [9] stood at 100%; in series [10], 90%; in series [11] it was 22%. Besides, the Vd in [12], in series [13] and in series [14] was 4 L/kg each time. Also, the inhibition constant Ki in series [15] is 88 nM; in [17], greater than 100000 nM; in series [18], 10.8 nM; in series [19], 17 nM; in series [20], 150 nM. Also, the 50% effective concentration (EC50) in [16] was found to be 4260 nM.

In turn, `O=C1O[C@]2(CN3CCC2CC3)CN1c1ccc2sccc2c1` registered an IC50 in series [21] greater than 30000 nM. Besides, the inhibition constant (Ki) in series [22] came out at 28 nM.

Regarding `Cn1ccc2cc3c(cc21)CCN3C(=O)Nc1cccnc1`, the fold change (FC) in series [23] came out at 8. For the same compound, the half-maximal effective concentration (EC50) in series [24] stood at 1500 nM.

Take `C=CC[C@@H]1CC[C@@H](CC)[C@@H]2CCCCN12`: the IC50 in series [25] turned out to be 600 nM; in series [26], 5200 nM; in series [27] it was 8800 nM.

As usually defined, the Emax is the size of the effect at its maximum, as opposed to the concentration needed. The inhibition is the relative decrease from the control value, in per cent. High values mean a strong effect, low ones a weak effect. Broadly, the EC50 is the concentration that produces a half-maximal response. The term Ki denotes a measure of affinity in units of concentration, obtained from inhibition or displacement. A low value points to a stronger hold on the target. As a reminder, the bioavailability is dose-corrected exposure relative to a reference, in per cent. Higher therefore signals much systemic uptake. What is called Vd is the apparent volume that relates the amount in the body to the concentration in plasma or blood. Low readings indicate little distribution into tissue, high ones wide distribution into tissue. One may read the IC50 as the concentration that gives 50% inhibition.
